Results reported in publication PMC8518066, “Efficient Entropy‐Driven Inhibition of Dipeptidyl Peptidase III by Hydroxyethylene Transition‐State Peptidomimetics” (Chemistry (Weinheim an Der Bergstrasse, Germany), 2021).
Positions count from the first letter of the chain named. Read-outs that look alike come from different tables or passages of the source. Values belong to the compound of their own block, whether it stands above or below them.

Columns and labels:
hDPP3 [1] = molecular target: T1, hDPP3 (Homo sapiens, UniProt Q9NY33); assay: Time-dependent inhibition of hDPP3 by tynorphin and HER; format: biochemical; conditions: inhibitor at 5 times IC50, room temperature, 0-24 h
T1 construct: His6 (cleaved yes); made in house; host or cells: E. coli BL21-CodonPlus (DE3) RIL
T1 sequence (Q9NY33 1-726): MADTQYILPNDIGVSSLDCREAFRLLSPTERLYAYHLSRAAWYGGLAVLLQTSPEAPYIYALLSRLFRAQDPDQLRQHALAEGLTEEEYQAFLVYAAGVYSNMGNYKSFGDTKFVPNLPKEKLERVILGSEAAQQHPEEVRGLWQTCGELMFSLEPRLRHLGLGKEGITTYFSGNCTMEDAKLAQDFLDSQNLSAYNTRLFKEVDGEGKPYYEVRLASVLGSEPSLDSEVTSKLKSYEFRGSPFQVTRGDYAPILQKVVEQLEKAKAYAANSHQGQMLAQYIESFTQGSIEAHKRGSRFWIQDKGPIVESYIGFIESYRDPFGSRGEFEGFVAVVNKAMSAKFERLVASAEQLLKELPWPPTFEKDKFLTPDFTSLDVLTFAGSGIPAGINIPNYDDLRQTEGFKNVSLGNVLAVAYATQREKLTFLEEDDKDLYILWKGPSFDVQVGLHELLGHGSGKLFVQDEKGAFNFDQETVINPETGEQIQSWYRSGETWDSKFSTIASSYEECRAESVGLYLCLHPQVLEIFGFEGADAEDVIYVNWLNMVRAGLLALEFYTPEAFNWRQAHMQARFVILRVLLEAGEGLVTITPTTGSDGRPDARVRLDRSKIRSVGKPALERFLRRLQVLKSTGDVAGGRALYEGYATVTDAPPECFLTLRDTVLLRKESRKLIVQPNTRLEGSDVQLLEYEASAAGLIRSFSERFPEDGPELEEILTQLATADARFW

Mammalian DPP3 = tested on: Mammalian DPP3; set-up: method as in PMID 7931295, PMID 9425109; conditions: cited from earlier work
hDPP3 [2] = molecular target: T1, hDPP3; assay: Fluorescence-based competitive enzyme inhibition assay (degradation of H-Arg-Arg-βNA substrate); format: biochemical; conditions: for IC50: hDPP3, H-Arg-Arg-βNA substrate, 37 °C, pH 8.0
[3] = molecular target: T2, hDPP3 (inactive variant E451A) (Homo sapiens, UniProt Q9NY33, E451A); assay: Isothermal titration calorimetry (ITC); format: binding; conditions: mean of three independent measurements; for Kd: hDPP3 E451A, 298 K
T2 construct: His6 (cleaved yes); made in house; host or cells: E. coli BL21-CodonPlus (DE3) RIL
T2 sequence (Q9NY33 1-726 E451A): T1 sequence (Q9NY33 1-726) with E451A

placental DPP3 = tested on: placental DPP3; set-up: method as in PMID 9711218; conditions: placental DPP3, H-Arg-Arg-βNA substrate; cited from earlier work
[4] = tested on: DPP3 in mouse brain homogenate; assay: Ex vivo DPP3 inhibition in mouse brain homogenate; format: biochemical; conditions: Figure SI1
hDPP3 [5] = molecular target: T1, hDPP3; assay: Thermal shift assay (Thermofluor); format: binding; conditions: 10 µM hDPP3, 50 µM HER

Compound: tynorphin [reference compound]
- time-dependent inhibition of hDPP3 (stability against the peptidase) (hDPP3 [1]): lost its efficacy within the first hour

Compound: O=S(=O)(F)Cc1ccccc1 [PMSF, phenylmethanesulfonylfluoride]
- inhibition of mammalian DPP3 (Mammalian DPP3): significantly inhibited

- IC50 (hDPP3 [2]): 17.9 µM
- melting point: 148 to 150 °C
Compound: COC(=O)[C@H](Cc1c[nH]c2ccccc12)NC(=O)[C@@H]1CCCN1C(=O)[C@H](Cc1ccc(O)cc1)C[C@@H](O)[C@@H](NC(=O)[C@@H](N)C(C)C)C(C)C [compound 32]

- IC50 (hDPP3 [2]): 98.5 µM
- Kd [3]: 23 µM
- -TΔS [3]: -8.1 kcal/mol
- ΔH [3]: 2.3 kcal/mol
Compound: CC(C)[C@H](N)C(=O)N[C@@H](C(C)C)[C@@H](O)C[C@@H](Cc1ccccc1)C(=O)N1CCC[C@H]1C(=O)N[C@@H](Cc1c[nH]c2ccccc12)C(=O)O [SHE]

- melting point: 172 to 174 °C
Compound: CC(C)[C@H](N)C(=O)N[C@@H](C(C)C)[C@H](O)C[C@@H](Cc1ccc(O)cc1)C(=O)N1CCC[C@H]1C(=O)N[C@@H](Cc1c[nH]c2ccccc12)C(=O)O

- melting point: 164 to 166 °C
Compound: CC(C)[C@H](NC(=O)[C@@H](N)C(C)(C)C)[C@H](O)C[C@@H](Cc1ccccc1)C(=O)N1CCCC[C@H]1C(=O)N[C@@H](Cc1c[nH]c2ccccc12)C(=O)O [37 b]

Compound: O=c1oc(Cl)c(Cl)c2ccccc12 [DCI, 3,4‐dichloroisocoumarin]
- inhibition of mammalian DPP3 (Mammalian DPP3; covalently binding serine peptidase inhibitors): significantly inhibited

Compound: Cc1ccc(S(=O)(=O)N[C@@H](Cc2ccccc2)C(=O)CCl)cc1 [TPCK, tosyl‐phenylalanyl chloromethyl ketone]
- inhibition of mammalian DPP3 (Mammalian DPP3): significantly inhibited

Compound: Cc1cc(=O)c2c(cc(O)c3c4c(O)cccc4c(=O)c32)c1=O [fluostatins A]
- IC50 (placental DPP3): 1.44 µM

- melting point: 168 to 170 °C
Compound: CC(C)[C@H](N)C(=O)N[C@@H](C(C)C)[C@H](O)C[C@@H](Cc1ccc(F)cc1)C(=O)N1CCC[C@H]1C(=O)N[C@@H](Cc1c[nH]c2ccccc12)C(=O)O

Compound: CC1C(=O)c2cc(O)c3c(c2C(O)C1O)C(=O)c1cccc(O)c1-3 (stereo not shown) [B, fluostatins A and B]
- IC50 (placental DPP3): 74 µM

- melting point: 160 to 162 °C
Compound: Cc1ccc(C[C@H](C[C@@H](O)[C@@H](NC(=O)[C@@H](N)C(C)C)C(C)C)C(=O)N2CCC[C@H]2C(=O)N[C@@H](Cc2c[nH]c3ccccc23)C(=O)O)cc1

- IC50 (hDPP3 [2]): 34.4 µM
- melting point: 160 to 162 °C
Compound: CC(C)[C@H](N)C(=O)N[C@@H](C(C)C)[C@H](O)C[C@@H](Cc1ccccc1)C(=O)N1CCCC[C@H]1C(=O)N[C@@H](Cc1c[nH]c2ccccc12)C(=O)O [37 a]

- potency relative to SHE (IC50 ratio) (hDPP3 [2]; HER versus SHE): 7 fold
- IC50 (hDPP3 [2]): 13.8 µM
- Kd [3]: 11 µM
- -TΔS [3]: -16.0 kcal/mol
- ΔH [3]: 10.7 kcal/mol
- Melting temperature (Tm) of hDPP3+HER (hDPP3 [5]; t=0 h of incubation): 57.5 °C
- Melting temperature (Tm) of hDPP3+HER (hDPP3 [5]; t=24 h of incubation): 57 °C
- melting point: 148 to 152 °C
Compound: CC(C)C(N)C(=O)NC(C(C)C)C(O)CC(Cc1ccccc1)C(=O)N1CCCC1C(=O)NC(Cc1c[nH]c2ccccc12)C(=O)O (stereo not shown) [HER]
- inhibition of DPP3 in mouse brain homogenate [4]: efficiently inhibit DPP3 in mouse brain homogenate without losing much of its potency
- time-dependent inhibition of hDPP3 (stability against the peptidase) (hDPP3 [1]): efficiently inhibit the activity over a period of 24 h
